# Measurements reported in patent US20130243847A1, “ACTIVATED CREATININE AND PRECURSORS THEREOF AS ANTIBACTERIAL AGENTS, COMPOSITIONS AND PRODUCTS CONTAINING SUCH AGENTS AND USE THEREOF” (BOARD OF REGENTS OF THE UNIVERSITY OF NEBRASKA, priority 2010, published 2013).
# Legend:
# Assay type in all cases: cell-based
# S. aureus [1] = experiment: Disc diffusion assay, different carrier media (Example 2); conditions: 28% by weight agent, approx. 50 μL
# Procedure: For purposes of the experiments described below, test compositions were prepared by admixing antibacterially-activated creatinine (CRN) or a precursor of antibacterially-activated CRN, i.e., creatine ethyl ester (CEE), as required for the experiment at hand, with a weighed amount of a suitable carrier medium to give a final concentration of 28% by weight of the antibacterial agent, based on the total weight of the composition.
# Antibacterial compositions were prepared following this procedure using a number of different aqueous and non-aqueous (anhydrous) carrier media, and evaluated for antibacterial activity in a standard disc diffusion assay. Thus, approximately 50 μL of each selected carrier containing 28% by weight of either a precursor of antibacterially-activated CRN, CEE, or antibacterially-activated CRN was added to a 6 mm disc and inverted onto a brain heart infusion agar plate that was previously spread with S. aureus at 10^5 organisms per mL. Plates were incubated at 37° C. overnight and the clear zones showing inhibition of bacterial growth were measured.
# Saccharomyces sp. [2] = experiment: Selective growth on LBD agar, mixture of Micrococcus sp. and Saccharomyces sp. (Example 12, FIG. 11A)
# Procedure: Colonies of Micrococcus sp. and Saccharomyces sp. grown on LB agar supplemented with 1% dextrose (LBD) were suspended in PBS to 0.30 A580 nm. An equal volume of the two organisms was combined and the mixture streaked onto LBD agar alone or LBD containing CEE and incubated at 37 C for 24 hours.
# Saccharomyces sp. [3] = experiment: Selective growth on BHI agar, mixture of three organisms (Example 12, FIG. 11C)
# Procedure: (§1) Colonies of Micrococcus sp., Rhodotorula sp. and Saccharomyces sp. grown on brain heart infusion agar (BHI) were suspended in PBS to 0.30 OD, 580 nm. An equal volume of the three (3) organisms were combined and the mixture streaked onto plates containing BHI agar alone or BHI agar supplemented with a precursor of antibacterially-activated CRN, CEE, and incubated 48 hours at 37° C.
# Micrococcus sp. = experiment: as above
# Procedure: as §1
# Rhodotorula sp. = experiment: as above
# Procedure: as §1
# [4] = system: Escherichia coli beta lactamase producer (ESBL); conditions: E. coli ESBL; 50 mg anhydrous topical cream with 28% by weight agent; gentamicin 10 μg disc
# Procedure: This testing involved the use of 50 mg of an anhydrous topical cream containing the antibacterial agent of the invention in an amount of 28% by weight and 10 μg of gentamicin, impregnated into a standard commercially available disc (Remel, Lenoxa Kans.).
# [5] = system: Staphylococcus epidermidis; experiment: Disc diffusion assay, odor causing microorganisms (Example 11); conditions: 25 mg anhydrous formulation (28% by weight) on filter disc
# Procedure: (§2) Twenty-five milligrams of an anhydrous formulation of either antibacterially-activated CRN or a precursor of antibacterially-activated CRN, CEE, was prepared as described in Example 2, applied to a filter disc and tested for inhibition of bacterial growth of several odor causing microorganisms in a standard disc diffusion assay using Eridex™ (Cargill Inc. Cedar Rapids, Iowa) or creatine monohydrate containing no antibacterial agent as controls. […] The zones of inhibition for CRN or lack thereof for control test samples for B. linens and M. luteus are illustrated in FIGS. 10A and 10B respectively.
# Brevibacterium linens = experiment: as above; conditions: 25 mg anhydrous formulation (28% by weight) on filter disc
# Procedure: as §2
# Micrococcus luteus = experiment: as above; conditions: 25 mg anhydrous formulation (28% by weight) on filter disc
# Procedure: as §2
# Bacillus subtilis = experiment: as above; conditions: 25 mg anhydrous formulation (28% by weight) on filter disc
# Procedure: as §2
# S. aureus [6] = experiment: Disc diffusion assay in hydrogel carrier (Example 8)
# Procedure: Separate formulations of antibacterially-activated CRN and a precursor of antibacterially-activated CRN, CEE, were prepared by admixing the respective antibacterial agent with a hydrogel (Advanced Medical Solutions Ltd, UK.) in varying amounts to provide final concentrations of 1 M, 500 mM, 250 mM and 125 mM. Approximately 50 μL of each formulation at the four (4) different molar concentrations was added to a 6 mm disc and inverted onto a brain heart infusion agar plate that was previously spread with S. aureus suspended in PBS at 10^5 organisms per mL. Plates were incubated at 37° C. overnight and clear zones showing inhibition of bacterial growth were measured. The hydrogel carrier including no bacterial agent (0 mM) was used as a control.
# M. luteus = experiment: Growth in broth with CEE at different concentrations (Example 3, FIG. 2B); conditions: broth culture, absorbance over time
# Procedure: The CEE precursor of antibacterially-activated CRN was diluted at different concentrations into Lederberg's broth (LB), which was then inoculated to 10^4/mL with S. aureus. The cultures were incubated in capped plastic tubes at 37° C. and aerated by tumbling using a tube rotating device.
# A similar experiment was conducted with the same precursor of antibacterially-activated CRN and tested on M. luteus.
# S. aureus [7] = experiment: Disc diffusion assay of creatine esters (Example 6); conditions: approx. 50 μL anhydrous polyethylene glycol carrier with 28% by weight agent
# Procedure: Four (4) different creatine esters were prepared according to the method of U.S. Pat. No. 6,897,334 to Vennerstrom. The esters thus prepared were activated in the manner described herein to impart antibacterial activity thereto. Four (4) test formulations were prepared, each including approximately 50 μL of an anhydrous polyethylene glycol carrier containing 28% by weight of a different creatine ester. Each formulation was added to a 6 mm disc and inverted onto a brain heart infusion agar plate that was previously spread with S. aureus at 10^5 organisms per mL. Plates were incubated at 37° C. overnight and the clear zones showing inhibition of bacterial growth were measured.
# [8] = 100 mM and 200 mM CEE in BHI agar, 48 hours, 37° C.
# [9] = 300 and 400 mM CEE in BHI agar (data not shown)
smiles,measurement,setting,value
"CCOC(=O)CN(C)C(=N)N [CEE, creatine ethyl ester]",Zone of Inhibition,S. aureus [1]; carrier hydrogel,20 mm
same,Zone of Inhibition,S. aureus [1]; carrier mineral oil,21 mm
same,Zone of Inhibition,S. aureus [1]; carrier pharmaceutical grade Lipoil (lecithin and isopropyl palmitate),12 mm
same,Zone of Inhibition,S. aureus [1]; carrier pharmaceutical topical formulation (proprietary blend),26 mm
same,Zone of Inhibition,S. aureus [1]; carrier polyethylene glycol 200,18 mm
same,Zone of Inhibition,S. aureus [1]; carrier polyethylene glycol 400,14 mm
same,Zone of Inhibition,S. aureus [1]; carrier red palm oil,15 mm
same,Zone of Inhibition,S. aureus [1]; carrier water/25% glycerol,15 mm
same,Zone of Inhibition,S. aureus [1]; carrier water/50% glycerol,15 mm
same,Zone of Inhibition,S. aureus [1]; carrier water,9 mm
same,Zone of Inhibition,S. aureus [1]; carrier white palm oil/corn oil (50% ea),17 mm
same,Zone of Inhibition,S. aureus [1]; carrier white palm oil,12 mm
same,selectivity of media for yeast over Micrococcus sp.,"Saccharomyces sp. [2]; 200 mM CEE in LBD agar, 37 C, 24 hours",selective for Saccharomyces
same,growth of Saccharomyces,Saccharomyces sp. [2]; 300-400 mM CEE in LBD agar (data not shown),supported growth of Saccharomyces
same,growth of Saccharomyces,Saccharomyces sp. [3]; [8],enhanced
same,growth of Saccharomyces,Saccharomyces sp. [3]; [9],did not affect the growth
same,growth of Micrococcus,"Micrococcus sp.; 100 mM CEE in BHI agar, 48 hours, 37° C.",greatly retarded
same,growth of Micrococcus,"Micrococcus sp.; 200 mM CEE in BHI agar, 48 hours, 37° C.",completely inhibited
same,growth of Micrococcus,Micrococcus sp.; [9],inhibited the growth of Micrococcus
same,growth of Rhodotorula,Rhodotorula sp.; [8],enhanced
same,growth of Rhodotorula,Rhodotorula sp.; [9],did not affect the growth
same,Zone of Inhibition,[4],19 mm
same,ZONE OF INHIBITION,[5],27 mm
same,ZONE OF INHIBITION,Brevibacterium linens,40 mm
same,ZONE OF INHIBITION,Micrococcus luteus,22 mm
same,ZONE OF INHIBITION,Bacillus subtilis,20 mm
same,zone of inhibition at 125000 µM,S. aureus [6]; Staphylococcus aureus,7 mm
same,zone of inhibition at 250000 µM,S. aureus [6]; Staphylococcus aureus,10 mm
same,zone of inhibition at 500000 µM,S. aureus [6]; Staphylococcus aureus,15 mm
same,Zone of Inhibition,"S. aureus [6]; hydrogel, 1M, approx. 50 μL",20 mm
same,concentration that inhibited growth of M. luteus,M. luteus,approximately 1 mM
same,Zone of Inhibition,S. aureus [7],20 mm
